Experiment [1] deals with T1, N-type calcium channels (IMR-32 cells) (Homo sapiens, UniProt Q00975).
T1 construct: host or cells: IMR-32 cells, differentiated with dibutyryl cAMP and bromodeoxyuridine
Kind of experiment: N-type Ca2+ channel blocking in IMR-32 cells using the fluorescent Ca2+ indicator Indo-1. Particulars: 5 μM nitrendipine to block L-type channels, KCl depolarization, 30° C., read-out: Inhibition of Ca^+2 Influx in IMR-32 Cells IC50. Format: cell-based. The method, then: Measurement of N-type Ca2+ Channel Blocking Potencies of Compounds in IMR-32 Cells Using the Fluorescent Ca2+ Indicator Indo-1 IMR-32 cells are a human tumoral cell line of neural origin. […] Calcium flux into these cells may be induced by stimulation with elevated potassium concentrations. The L-channel component of calcium flux may be blocked by adding 5 μM nitrendipine. The remaining component of calcium entry into the IMR-32 cells is due to calcium flux through N-type calcium channels. Intracellular calcium concentrations are measured using the fluorescent calcium indicator Indo-1. The effect of drug concentration on calcium uptake is studied. Methods The IMR-32 cell line was obtained from the American Type Culture Collection (Rockville, Md.). Cells were grown in Eagle's Minimum Essential Medium with Earle's salts supplemented with 10% fetal bovine serum, 2 mM L-Gln and antibiotic/antimicotic mixture (Gibco). At approximately 80% confluency, differentiation was induced by the addition of 1 mM dibutyryl cAMP and 2.5 μM bromodeoxyuridine to the medium. After 7 to 13 days of differentiation, cells were detached using 0.5 mM EDTA and loaded with five 5 μM Indo-1 acetoxymethyl ester (Molecular Probes, Eugene, Oreg.) at 30° C. for 45 minutes. Loaded cells were washed twice, resuspended (~10^7 cells/mL) in assay buffer (10 mM HEPES/Tris pH 7.4 in Hank's Balanced Salt Solution without bicarbonate or phenol red containing 0.5% bovine serum albumin) and kept on ice until use. Fluorescence measurements were carried out in a Photon Technology International (PTI, South Brunswick, N.J.) Model RF-[…] spectrofluorometer with dual emission monochromators using excitation at 350 nm and emission at 400 and 490 nm. The instrument was equipped with a thermostatted cuvette holder with stirring capabilities as well as with a computer-controlled pump which allowed for reagent addition during measurement. Instrument control and data collection was done by PTI's OSCAR software running on an IBM compatible computer. […] At 20 seconds after the start of reading, cells were depolarized by the addition of 160 μL of stimulation solution (1M KCl, 68 mM CaCl2) to the cuvette via the computer-controlled pump. Ratio of dual emission signals (400 nm/490 nm), which is proportional to intracellular Ca^2+ concentration, was plotted against time, and the difference between maximal response after stimulation and basal value (before stimulation) was determined. […] IC50 values of test compounds were calculated by fitting a four-parameter logistic function to the data using the least squares method.

The subject of experiment [2] is ischemia and pain. The note with it: Bowersox et al. 1994; cited from earlier work.

The text below walks through data of US5767129A, “Substituted quinolines and isoquinolines as calcium channel blockers, their preparation and the use thereof” (Warner-Lambert Company, priority 1996, dated 1998).

T1 sequence (Q00975 whole entry): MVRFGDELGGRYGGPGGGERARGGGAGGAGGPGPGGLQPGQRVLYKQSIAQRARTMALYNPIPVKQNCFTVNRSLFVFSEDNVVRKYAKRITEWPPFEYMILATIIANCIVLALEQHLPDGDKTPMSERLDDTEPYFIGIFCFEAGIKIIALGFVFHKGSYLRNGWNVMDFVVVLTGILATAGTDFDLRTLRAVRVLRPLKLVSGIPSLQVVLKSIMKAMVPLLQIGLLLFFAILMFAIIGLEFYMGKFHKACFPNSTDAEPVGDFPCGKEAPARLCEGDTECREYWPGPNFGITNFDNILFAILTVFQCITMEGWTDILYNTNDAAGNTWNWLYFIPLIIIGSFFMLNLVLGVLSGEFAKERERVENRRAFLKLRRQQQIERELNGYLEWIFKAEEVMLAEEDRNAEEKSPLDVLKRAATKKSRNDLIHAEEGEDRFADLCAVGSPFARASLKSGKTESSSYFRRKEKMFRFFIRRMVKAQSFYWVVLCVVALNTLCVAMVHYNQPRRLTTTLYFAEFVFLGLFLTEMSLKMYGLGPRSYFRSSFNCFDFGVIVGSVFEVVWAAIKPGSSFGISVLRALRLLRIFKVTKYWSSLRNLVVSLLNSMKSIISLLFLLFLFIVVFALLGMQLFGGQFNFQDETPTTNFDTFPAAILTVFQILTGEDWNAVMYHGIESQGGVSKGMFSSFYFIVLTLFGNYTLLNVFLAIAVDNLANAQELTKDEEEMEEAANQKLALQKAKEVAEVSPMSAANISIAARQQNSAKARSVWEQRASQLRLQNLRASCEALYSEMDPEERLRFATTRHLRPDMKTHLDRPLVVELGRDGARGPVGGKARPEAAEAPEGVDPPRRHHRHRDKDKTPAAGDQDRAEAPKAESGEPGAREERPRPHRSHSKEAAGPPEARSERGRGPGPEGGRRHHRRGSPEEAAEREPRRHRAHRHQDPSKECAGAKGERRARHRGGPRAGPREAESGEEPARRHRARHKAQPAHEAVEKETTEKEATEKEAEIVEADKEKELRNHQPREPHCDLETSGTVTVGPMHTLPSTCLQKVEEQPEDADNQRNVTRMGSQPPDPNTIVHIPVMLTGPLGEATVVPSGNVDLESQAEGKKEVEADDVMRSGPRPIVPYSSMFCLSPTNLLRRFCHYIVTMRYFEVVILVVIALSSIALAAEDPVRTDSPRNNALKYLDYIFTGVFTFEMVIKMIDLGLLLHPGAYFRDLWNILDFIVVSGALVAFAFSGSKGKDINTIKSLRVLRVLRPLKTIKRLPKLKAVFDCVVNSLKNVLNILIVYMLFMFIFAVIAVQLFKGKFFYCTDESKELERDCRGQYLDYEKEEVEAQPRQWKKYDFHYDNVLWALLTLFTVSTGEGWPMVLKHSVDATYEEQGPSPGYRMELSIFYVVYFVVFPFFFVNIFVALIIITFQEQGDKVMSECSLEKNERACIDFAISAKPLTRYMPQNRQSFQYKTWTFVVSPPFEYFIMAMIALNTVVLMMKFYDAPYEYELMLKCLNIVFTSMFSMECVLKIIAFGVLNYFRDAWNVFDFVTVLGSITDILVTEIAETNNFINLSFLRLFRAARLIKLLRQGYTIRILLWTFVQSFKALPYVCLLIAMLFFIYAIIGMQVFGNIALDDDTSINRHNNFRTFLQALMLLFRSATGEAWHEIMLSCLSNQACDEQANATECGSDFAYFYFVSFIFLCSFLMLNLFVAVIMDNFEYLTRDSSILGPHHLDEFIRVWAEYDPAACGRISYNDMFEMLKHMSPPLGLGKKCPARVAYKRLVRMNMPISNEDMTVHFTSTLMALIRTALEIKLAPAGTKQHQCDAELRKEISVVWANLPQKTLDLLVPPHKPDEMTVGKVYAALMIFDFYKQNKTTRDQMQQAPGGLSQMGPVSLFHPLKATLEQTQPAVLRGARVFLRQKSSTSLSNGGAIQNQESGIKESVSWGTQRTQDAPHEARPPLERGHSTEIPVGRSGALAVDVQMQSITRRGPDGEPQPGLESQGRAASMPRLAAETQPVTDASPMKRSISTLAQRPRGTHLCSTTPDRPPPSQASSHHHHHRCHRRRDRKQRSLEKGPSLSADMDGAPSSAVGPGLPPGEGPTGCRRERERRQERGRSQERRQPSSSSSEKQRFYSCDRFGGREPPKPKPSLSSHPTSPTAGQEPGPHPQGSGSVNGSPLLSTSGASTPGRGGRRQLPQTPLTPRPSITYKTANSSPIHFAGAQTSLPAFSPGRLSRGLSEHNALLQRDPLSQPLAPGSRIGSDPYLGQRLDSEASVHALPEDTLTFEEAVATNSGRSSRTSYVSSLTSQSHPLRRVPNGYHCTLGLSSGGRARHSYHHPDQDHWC

As to `Oc1c(CN2CCCCCC2)ccc2c1CCN(CCCC(c1ccc(F)cc1)c1ccc(F)cc1)C2` [Example 11, 6-Azepan-1-ylmethyl-2-[4,4-bis-(4-fluorophenyl)-butyl]-1,2,3,4-tetrahydroisoquinolin-5-ol], in experiment [1], the IC50 was 1.3 µM.

Consider `Oc1c(CN2CCCCCC2)ccc2c1CCN(CCCC(c1ccccc1)c1ccccc1)C2` [Example 6, 6-Azepan-1-ylmethyl-2-(4,4-diphenylbutyl)-1,2,3,4-tetrahydroisoquinolin-5-o], for which, in experiment [1], the IC50 is 0.82 µM. On the same count and under the same terms, next, `Oc1c(CNC2CCCCC2)ccc2c1CCN(CCCC(c1ccccc1)c1ccccc1)C2` [Example 7, 6-Cyclohexylaminomethyl-2-(4,4-diphenylbutyl)-1,2,3,4-tetrahydroisoquinolin-5-ol]: 1 µM. With `CSCC[C@@H]1NC(=O)[C@H](CC(C)C)NC(=O)[C@H](CCCNC(=N)N)NC(=O)[C@H](CO)NC(=O)[C@@H]2CSSC[C@@H]3NC(=O)[C@H](CO)NC(=O)CNC(=O)[C@H]([C@@H](C)O)NC(=O)[C@H](CSSC[C@H](N)C(=O)N[C@@H](CCCCN)C(=O)NCC(=O)N[C@@H](CCCCN)C(=O)NCC(=O)N[C@@H](C)C(=O)N[C@@H](CCCCN)C(=O)N2)NC(=O)[C@H](CSSC[C@@H](C(N)=O)NC(=O)[C@H](CCCCN)NC(=O)CNC(=O)[C@H](CO)NC(=O)[C@H](CCCNC(=N)N)NC3=O)NC(=O)[C@H](CC(=O)O)NC(=O)[C@H](Cc2ccc(O)cc2)NC1=O` [SNX-111], in experiment [2], the “activity in models of ischemia and pain (in words)” value is “demonstrated activity in a number of models of ischemia and pain”.

With `c1ccc(C(CCCN2CCc3c(ccc4c3OCN(C3CCCCC3)C4)C2)c2ccccc2)cc1` [Example 8, 2-Cyclohexyl-7-(4,4-diphenylbutyl)-2,3,5,6,7,8-hexahydro-1H-4-oxa-2,7-diazaphenanthrene], the IC50 in experiment [1] was found to be 1.1 µM.

The IC50 is the midpoint of a concentration-inhibition curve.
